Where two headings read alike, the source gives them in different places.
Tests used:
[1] = system: HepG2-A16-CD81EGFP cells; details: for IC50: read-out: Tox_IC50, HepG2 cytotoxicity
[2] = system: Plasmodium berghei (Pb-Luc) exoerythrocytic-stage parasites; assay: microbe, parasite or virus in culture
[3] = system: Plasmodium berghei (Pb-Luc) exoerythrocytic-stage parasites; details: for normalized signal at concentration 10 / normalized signal at concentration 0.000508053 / normalized signal at concentration 0.00152416 / normalized signal at concentration 0.00457247 / normalized signal at concentration 0.0137174 / normalized signal at concentration 0.0411523 / normalized signal at concentration 0.123457 / normalized signal at concentration 0.37037 / normalized signal at concentration 1.11111 / normalized signal at concentration 3.33333: fraction of control; for IC50: read-out: PbLuc_IC50, Broad compounds; for normalised signal at concentration 10 (first series): concentration 10, first series of dose columns; for normalised signal at concentration 10 (second series): concentration 10, second series of dose columns
[4] = read-out: Inhibition% @ 50 uM rep1
[5] = read-out: Inhibition% @ 50 uM rep2
[6] = first series of dose-response columns
[7] = second series of dose-response columns
[8] = sheet 2nd round, maximal inhibition in dose response
[9] = sheet "2nd round", dose response top concentration 10

OCCNc1nc(Nc2ccc(Cl)c(Cl)c2)nc2ccccc12 [MMV001041]
HepG2 Tox% @ 50 uM rep1 ([1]; human, 50 uM): 98% | inhibition at 50 µM [2, 4]: 99% | inhibition at 50 µM [2, 5]: 101%

COc1ccc2nc(C)cc(Nc3cccc(O)c3)c2c1 [MMV008212]
HepG2 Tox% @ 50 uM rep1 ([1]; human, 50 uM): 99% | inhibition at 50 µM [2, 4]: 99% | inhibition at 50 µM [2, 5]: 102%

CCOC(=O)c1cnc2ccc(Cl)cc2c1NCCCN(C)C [MMV006882]
HepG2 Tox% @ 50 uM rep1 ([1]; human, 50 uM): 99% | inhibition at 50 µM [2, 4]: 99% | inhibition at 50 µM [2, 5]: 102%

COc1ccccc1C(=O)ON=C(N)Cc1cccc2ccccc12 [MMV666686]
HepG2 Tox% @ 50 uM rep1 ([1]; human, 50 uM): 101% | inhibition at 50 µM [2, 4]: 104% | inhibition at 50 µM [2, 5]: 104%

O=C1c2ccc3c4c(ccc(c24)C(=O)N1CCCCO)C(=O)N(CCCCO)C3=O [MMV009085]
HepG2 Tox% @ 50 uM rep1 ([1]; human, 50 uM): 102% | inhibition at 50 µM [2, 4]: 103% | inhibition at 50 µM [2, 5]: 104%

CCCCC(O)(c1ccc(Cl)cc1)C(CN1CCOCC1)c1ccc(Cl)cc1 (stereo not shown) [MMV000619]
HepG2 Tox% @ 50 uM rep1 ([1]; human, 50 uM): 97% | inhibition at 50 µM [2, 4]: 99% | inhibition at 50 µM [2, 5]: 100%

OC(CNCc1ccccc1)Cn1c2ccccc2c2ccccc21 (stereo not shown) [MMV000839]
HepG2 Tox% @ 50 uM rep1 ([1]; human, 50 uM): 99% | inhibition at 50 µM [2, 4]: 101% | inhibition at 50 µM [2, 5]: 100%

CCOc1cc2c(cc1OCC)C(c1cc(Cl)ccc1O)NCC2 (stereo not shown) [MMV000478]
HepG2 Tox% @ 50 uM rep1 ([1]; human, 50 uM): 101% | inhibition at 50 µM [2, 4]: 103% | inhibition at 50 µM [2, 5]: 104%

CCn1c(CN2CCN(Cc3ccccc3)CC2)nc2cc(NC(=O)c3cccs3)ccc21 [MMV020439]
HepG2 Tox% @ 50 uM rep1 ([1]; human, 50 uM): 98% | HepG2 Tox% @ 50 uM rep2 ([1]; human, 50 uM): 99% | inhibition at 50 µM [2, 4]: 99% | inhibition at 50 µM [2, 5]: 102%

COc1ccc2nc(N)nc(C)c2c1 [MMV665897]
HepG2 Tox% @ 50 uM rep1 ([1]; human, 50 uM): 97% | inhibition at 50 µM [2, 4]: 100% | inhibition at 50 µM [2, 5]: 101%

CN(C)c1ccc2c(c1)[C@@H]1C[C@@H](CC(=O)NC3CCCCC3)O[C@@H](CO)[C@@H]1O2 [BRD-K29474997-001-01-2]
normalized signal at concentration 10 [3, 6]: 1.33 | normalized signal at concentration 0.000508053 ([3]; first series): 1.31 | normalized signal at concentration 0.00152416 ([3]; first series): 1.11 | normalized signal at concentration 0.00457247 ([3]; first series): 1.19 | normalized signal at concentration 0.0137174 ([3]; first series): 0.90 | normalized signal at concentration 0.0411523 ([3]; first series): 0.87 | normalized signal at concentration 0.123457 ([3]; first series): 0.89 | normalized signal at concentration 0.37037 ([3]; first series): 0.92 | normalized signal at concentration 1.11111 ([3]; first series): 1.25 | normalized signal at concentration 3.33333 ([3]; first series): 0.99 | IC50 ([3]; sheet 2nd round, dose response): > 10 µM | normalized signal at concentration 10 [3, 7]: 1.28 | normalized signal at concentration 0.000508053 ([3]; second series): 1.12 | normalized signal at concentration 0.00152416 ([3]; second series): 1.06 | normalized signal at concentration 0.00457247 ([3]; second series): 1.06 | normalized signal at concentration 0.0137174 ([3]; second series): 1.04 | normalized signal at concentration 0.0411523 ([3]; second series): 1.09 | normalized signal at concentration 0.123457 ([3]; second series): 0.92 | normalized signal at concentration 0.37037 ([3]; second series): 0.91 | normalized signal at concentration 1.11111 ([3]; second series): 1.04 | normalized signal at concentration 3.33333 ([3]; second series): 1.16 | PbLuc_max_inhibition (%) [3, 8]: 13% | IC50 ([1]; sheet 2nd round): > 10 µM | Tox_max_inhibition (%) [1, 8]: 12%

C[C@H]1CCCCO[C@H](CN(C)S(=O)(=O)c2ccc(F)cc2)[C@@H](C)CN([C@@H](C)CO)C(=O)c2cc(N(C)C)ccc2O1 [BRD-K38571893-001-01-9]
normalized signal at concentration 10 [3, 6]: 0.89 | normalized signal at concentration 0.000508053 ([3]; first series): 0.97 | normalized signal at concentration 0.00152416 ([3]; first series): 0.98 | normalized signal at concentration 0.00457247 ([3]; first series): 0.90 | normalized signal at concentration 0.0137174 ([3]; first series): 0.78 | normalized signal at concentration 0.0411523 ([3]; first series): 1.07 | normalized signal at concentration 0.123457 ([3]; first series): 1.18 | normalized signal at concentration 0.37037 ([3]; first series): 0.95 | normalized signal at concentration 1.11111 ([3]; first series): 0.97 | normalized signal at concentration 3.33333 ([3]; first series): 0.87 | IC50 ([3]; sheet 2nd round, dose response): > 10 µM | normalized signal at concentration 10 [3, 7]: 0.80 | normalized signal at concentration 0.000508053 ([3]; second series): 1.11 | normalized signal at concentration 0.00152416 ([3]; second series): 0.83 | normalized signal at concentration 0.00457247 ([3]; second series): 0.98 | normalized signal at concentration 0.0137174 ([3]; second series): 1.18 | normalized signal at concentration 0.0411523 ([3]; second series): 1.02 | normalized signal at concentration 0.123457 ([3]; second series): 1.25 | normalized signal at concentration 0.37037 ([3]; second series): 0.98 | normalized signal at concentration 1.11111 ([3]; second series): 1.04 | normalized signal at concentration 3.33333 ([3]; second series): 0.97 | PbLuc_max_inhibition (%) [3, 8]: 22% | IC50 ([1]; sheet 2nd round): > 10 µM | Tox_max_inhibition (%) [1, 8]: -2.16%

O=C(NCc1ccc2c(c1)OCO2)[C@@H]1[C@@H](CO)[C@@H]2Cn3c(cccc3=O)[C@H]1N2Cc1cncnc1 [BRD-K31004267-001-01-6]
normalised signal at concentration 0.000508053 (first series) [3]: 0.9455 | normalised signal at concentration 0.000508053 (second series) [3]: 0.7294 | normalised signal at concentration 0.00152416 (first series) [3]: 0.9922 | normalised signal at concentration 0.00152416 (second series) [3]: 1.083 | normalised signal at concentration 0.00457247 (first series) [3]: 0.9907 | normalised signal at concentration 0.00457247 (second series) [3]: 0.8279 | normalised signal at concentration 0.0137174 (first series) [3]: 0.9424 | normalised signal at concentration 0.0137174 (second series) [3]: 0.9304 | normalised signal at concentration 0.0411523 (first series) [3]: 0.8128 | normalised signal at concentration 0.0411523 (second series) [3]: 1.152 | normalised signal at concentration 0.123457 (first series) [3]: 0.8401 | normalised signal at concentration 0.123457 (second series) [3]: 1.066 | normalised signal at concentration 0.37037 (first series) [3]: 1.129 | normalised signal at concentration 0.37037 (second series) [3]: 0.8899 | normalised signal at concentration 1.11111 (first series) [3]: 0.9661 | normalised signal at concentration 1.11111 (second series) [3]: 0.8895 | normalised signal at concentration 3.33333 (first series) [3]: 0.7673 | normalised signal at concentration 3.33333 (second series) [3]: 0.9284 | normalised signal at concentration 10 (first series) [3]: 1.039 | normalised signal at concentration 10 (second series) [3]: 0.9564 | IC50 [3, 9]: > 10 µM | PbLuc_max_inhibition (%) ([3]; sheet "2nd round"): 27% | IC50 ([1]; sheet "2nd round"): > 10 µM | Tox_max_inhibition (%) ([1]; sheet "2nd round"): 14%

CC(C)[C@@H]1COCc2cnnn2CCC[C@H](C)C(=O)N1 [BRD-K01882341-001-02-9]
normalised signal at concentration 0.000508053 (first series) [3]: 0.8014 | normalised signal at concentration 0.000508053 (second series) [3]: 0.9562 | normalised signal at concentration 0.00152416 (first series) [3]: 0.9047 | normalised signal at concentration 0.00152416 (second series) [3]: 0.8755 | normalised signal at concentration 0.00457247 (first series) [3]: 0.9797 | normalised signal at concentration 0.00457247 (second series) [3]: 1.034 | normalised signal at concentration 0.0137174 (first series) [3]: 0.9629 | normalised signal at concentration 0.0137174 (second series) [3]: 0.9854 | normalised signal at concentration 0.0411523 (first series) [3]: 0.8726 | normalised signal at concentration 0.0411523 (second series) [3]: 0.8168 | normalised signal at concentration 0.123457 (first series) [3]: 0.9418 | normalised signal at concentration 0.123457 (second series) [3]: 1.121 | normalised signal at concentration 0.37037 (first series) [3]: 0.9345 | normalised signal at concentration 0.37037 (second series) [3]: 0.7926 | normalised signal at concentration 1.11111 (first series) [3]: 0.8828 | normalised signal at concentration 1.11111 (second series) [3]: 0.9806 | normalised signal at concentration 3.33333 (first series) [3]: 0.9641 | normalised signal at concentration 3.33333 (second series) [3]: 0.9379 | normalised signal at concentration 10 (first series) [3]: 1.091 | normalised signal at concentration 10 (second series) [3]: 0.8693 | IC50 [3, 9]: > 10 µM | PbLuc_max_inhibition (%) ([3]; sheet "2nd round"): 21% | IC50 ([1]; sheet "2nd round"): > 10 µM | Tox_max_inhibition (%) ([1]; sheet "2nd round"): 4.53%
